Laboratory results as given in US8188218B2, “Bi-functional peptides for multiple sclerosis treatment and diagnosis” (priority 2006, dated 2012).
Where two headings read alike, the source gives them in different places. Numbered stars: 1 amine (or outer) side, 2 acyl side, 3 side chain; on linkers, the order of the positions; unused ones are H or OH. Square brackets hold non-standard residues; d marks the D form. Ends that are not written are not given here. Peptide text beside a SMILES is read from it. Eb = biotinyl-PEG-Glu: N-γ-(N-biotinyl-3-(2-(2-(3-aminopropyloxy)-ethoxy)-ethoxy)-propyl)-L-glutamine, O=C(CCCC[C@@H]1SC[C@@H]2NC(=O)N[C@@H]21)NCCCOCCOCCOCCCNC(=O)CC[C@H](N[*:1])C(=O)[*:2]; Ahx = NCCCCCC(=O)O

Assays:
PLP/CFA-immunized mice = assay: Anaphylaxis incidence after re-injection of the peptide at day 30
[1] = system: PLP/CFA-immunized female SJL/J mice; assay: Anaphylaxis incidence after injection of the peptide at later phase of disease; assay type: in vivo, mouse
From the text: The less incidence of inducing anaphylactic shock by BPI molecules was further examined. Female SJL/J mice were immunized with PLP/CFA as above, and injected intravenously with PLP or BPI molecules (100 nmol/mouse) at later phase of the disease (i.e., between day 28 and day 35). […] This was confirmed in another set of experiment, PLP-BPI induced anaphylaxis to 38.5% of treated mice while PLP caused anaphylaxis to more than 80% of treated mice (Table 9, Experiment II). In addition, 100% of mice that were injected with unlinked mixture of PLP and LABL (100 nmol each) died due to anaphylaxis. […] Taken together, BPI molecules (including PLP-BPI and Ac-PLP-BPI-NH2) could suppress EAE more efficiently with lower incidence of inducing anaphylaxis than PLP.

[2] = system: EAE mouse model (SJL/J female mice immunized with PLP/CFA); assay type: in vivo; conditions: for number of animals that died, Day 10 / number of animals that died, Day 11 / number of animals that died, Day 14 / number of animals that died, Total: 10 mice/group; for toxicity (conclusion from mortality, in words): mouse, in vivo
Method: To evaluate the in vivo activity of these molecules, SJL/J female mice at 6-8 weeks of age (Jackson Laboratory, Bar Harbor, Me.) were divided into six groups with ten mice in each group. At the initiation state (Day 0), all mice (10/group) were immunized by subcutaneous (s.c.) inoculation with 200 μg of PLP in a 0.2 mL emulsion with equal volumes of phosphate buffered saline (“PBS”) and complete Freund's adjuvant (“CFA”) (Difco, Detroit, Mich.). To enhance immunization with antigen, killed Mycobacterium tuberculosis strain H37RA (Difco) was added to the emulsion at a concentration of 4 mg/mL and administered to regions above the shoulder and the flanks. The injection volume was 50 μL at each injection site. In addition, 200 ng of pertussis toxin (List Biological Laboratories, Campbell, Calif.) was injected intraperitoneally (i.p.) on the day of immunization and 48 hours post-immunization. The onset of disease was on day 8 to day 12 post-immunization. Then, each mouse in Groups 1-4 received intravenous (i.v.) injections of 100 nmole/100 μL of the test peptides (PLP-BPI, PLP139-151, OVA-BPI, LABL) on days 4, 7, 10 and 14. Group 5 animals were injected with PBS on days 4, 7, 10 and 14. Group 6 animals received one i.p. injection of 500 μg PLPL,R on day 7.
All of the immunized mice were scored blindly 5-6 days/week by the same observer. Mean daily clinical scores were calculated by adding the grades of each mouse individually divided by the number of mice in each group. All animals were observed daily and, upon signs of paralysis and weakness, gel food and Napa nectar were provided to the animals to prevent dehydration. Saline was injected (s.c.) if a weight loss of 10% was observed within a 24-hour period. Body weight and disease scoring started at the onset of the disease (day 8). The measurements were continued daily (5 to 6 days/week) until the end of the disease.
The statistical analyses of the EAE scores and EAE incidence were done using Mann-Whitney U test and Kaplan-Meier analysis, respectively. The comparison was done between the peptide-treated mice (Groups 1, 2, 3, 4, and 6) and the control group (Group 5) at day 14 post-immunization.

EAE mouse model = assay: EAE mouse model, PLP-BPI vs mixture of PLP and LABL and VP2-BPI (Example 4); assay type: in vivo
From the text: To evaluate whether linking PLP and LABL peptides to give PLP-BPI has a significant role on its immunomodulatory activity, the activity of PLP-BPI was compared with that of a mixture of unlinked PLP and LABL peptides at the same concentration. To answer whether any antigenic peptide such as VP2 peptide that is linked to LABL peptide to give VP2-BPI will have immunomodulatory activity similar to that of PLP-BPI, we evaluated the activity of VP2-BPI in the same experiment. VP274-86 is an epitope peptide of Theiler's encephalomyelitis virus capsid protein VP2, and is known to bind to I-A^s. PBS-treated mice were used as the negative control. The experimental protocol was the same as in the previous study (see FIG. 1). Thus, VP2-BPI was used as a control to example to see if the PLP portion of the PLP-BPI is important to therapeutic activity.

LS102.9 mouse B-cells = assay: Binding of biotin-labeled PLP-BPI to B-cell line, flow cytometry; assay type: cell-based; conditions: 50 μM, 16 hours at 37° C.; FIG. 11(A)
From the text: (each step was followed by washing×3). […] The results are illustrated in FIG. 11.

[3] = system: T-cell-depleted splenocytes isolated from SJL/J female mice (EAE-induced); conditions: 50 μM, 16 hours at 37° C.; FIG. 11(B)
From the text: Binding studies were done using mouse B-lymphocyte line LS102.9 (FIG. 11(A)) and the isolated B-cells from the spleen of female SJL/J mice after induction of EAE (FIG. 11(B)). […] For the isolated spleen cells from EAE mice, the cells were isolated from female SJL/J mice on day 45 post immunization with PLP/CFA, when the clinical disease score for the mice was 0. Lymphocytes were obtained from the spleen cell suspension by centrifugation over Lymphocyte Separation Medium. T-cells were depleted by incubation with anti-CD90 mAb (clone G7) followed by Low-tox rabbit complement. Then, the cells were centrifuged over Lymphocyte Separation Medium to remove dead cells.
For the binding study, the biotin-labeled peptide (50 μM) was incubated with LS102.9 cells or T-cell-depleted splenocytes (2×10^6 cells) in 0.5% BSA-containing PBS for 16 hours at 37° C., 5% CO2. Following washing×3 with 5% FBS-containing PBS, the cells were incubated with fluorescein Avidin D (15 μg/ml) for 30 min at 4° C. The cells were further stained with biotinylated anti-Avidin D (1 μg/ml) for 60 min at 4° C., and then fluorescein Avidin D (15 μg/ml) for 30 min at 4° C. (each step was followed by washing×3). Finally, the fluorescein intensity of the individual cells was analyzed by flow cytometry.

[4] = Experiment I, 100 nmol/mouse i.v. between day 28 and day 35
[5] = Experiment II, 100 nmol/mouse i.v. (mixture 100 nmol each)
[6] = Experiment III, 100 nmol/mouse i.v.
[7] = peptide treatment day 4 (one), re-injection day 30
[8] = peptide treatment day 4, 7, 10, 14 (four), re-injection day 30

CC(C)C[C@H](NC(=O)[C@H](Cc1c[nH]c2ccccc12)NC(=O)[C@H](CCCCN)NC(=O)CNC(=O)[C@H](CC(C)C)NC(=O)[C@H](CO)NC(=O)[C@@H](N)Cc1c[nH]cn1)C(=O)NCC(=O)N[C@@H](Cc1c[nH]cn1)C(=O)N1CCC[C@H]1C(=O)N[C@@H](CC(=O)O)C(=O)N[C@@H](CCCCN)C(=O)N[C@@H](Cc1ccccc1)C(=O)O [PLP, HSLGKWLGHPDKF]
Moribund or death (PLP/CFA-immunized mice; peptide treatment None (PBS) day 4, 7, 10, 14, peptide injection day 30): 3/4 | Incidence of anaphylaxis [1, 4]: 75.0% | Incidence of anaphylaxis (animals/total) [1, 4]: 9/12 | Incidence of anaphylaxis (animals/total) [1, 5]: 11/13 | Incidence of anaphylaxis [1, 6]: 76.5% | Incidence of anaphylaxis (animals/total) [1, 6]: 13/17 | number of animals that died, Day 10 [2]: 0 | number of animals that died, Day 11 [2]: 0 | number of animals that died, Day 14 [2]: 0 | number of animals that died, Total [2]: no animals died | number of animals that died, Total ([2]; listed as PLP139-151): 0

CC[C@H](C)[C@H](NC(=O)CCCCCNC(=O)CNC(=O)CCCCCNC(=O)CNC(=O)CCCCCNC(=O)[C@H](C)NC(=O)[C@H](CCC(=O)O)NC(=O)[C@H](CC(N)=O)NC(=O)[C@@H](NC(=O)[C@H](CCC(=O)O)NC(=O)[C@H](C)NC(=O)[C@H](Cc1c[nH]cn1)NC(=O)[C@H](C)NC(=O)[C@H](C)NC(=O)[C@H](Cc1c[nH]cn1)NC(=O)[C@@H](NC(=O)[C@H](C)N)C(C)C)[C@@H](C)CC)C(=O)N[C@H](C(=O)N[C@@H](CC(=O)O)C(=O)NCC(=O)N[C@@H](CCC(=O)O)C(=O)N[C@@H](C)C(=O)N[C@H](C(=O)N[C@@H](CC(=O)O)C(=O)N[C@@H](CO)C(=O)NCC(=O)O)[C@@H](C)O)[C@@H](C)O [OVA-BPI, AVHAAHAEINEA-AcGAcGAc-ITDGEATDSG]
number of animals that died, Day 10 [2]: 0 | number of animals that died, Day 11 [2]: 0 | number of animals that died, Day 14 [2]: 2 | number of animals that died, Total [2]: 2

CC[C@H](C)[C@H](N)C(=O)N[C@H](C(=O)N[C@@H](CC(=O)O)C(=O)NCC(=O)N[C@@H](CCC(=O)O)C(=O)N[C@@H](C)C(=O)N[C@H](C(=O)N[C@@H](CC(=O)O)C(=O)N[C@@H](CO)C(=O)NCC(=O)O)[C@@H](C)O)[C@@H](C)O [LABL, ITDGEATDSG]
number of animals that died, Day 10 [2]: 3 | number of animals that died, Day 11 [2]: 1 | number of animals that died, Day 14 [2]: 0

CC(C)C[C@H](NC(=O)[C@H](CC(C)C)NC(=O)[C@H](CCCCN)NC(=O)CNC(=O)[C@H](CC(C)C)NC(=O)[C@H](CO)NC(=O)[C@@H](N)Cc1c[nH]cn1)C(=O)NCC(=O)N[C@@H](CCCNC(=N)N)C(=O)N1CCC[C@H]1C(=O)N[C@@H](CC(=O)O)C(=O)N[C@@H](CCCCN)C(=O)N[C@@H](Cc1ccccc1)C(=O)O [PLPL,R, HSLGKLLGRPDKF] (H-HSLGKLLGRPDKF-OH)
number of animals that died, Day 10 [2]: 0 | number of animals that died, Day 11 [2]: 5 | number of animals that died, Day 14 [2]: 1 | toxicity (conclusion from mortality, in words) [2]: severe effect (toxicity)

CC[C@H](C)[C@H](NC(=O)CCCCCNC(=O)CNC(=O)CCCCCNC(=O)CNC(=O)CCCCCNC(=O)[C@H](Cc1ccccc1)NC(=O)[C@H](CCCCN)NC(=O)[C@H](CC(=O)O)NC(=O)[C@@H]1CCCN1C(=O)[C@H](Cc1c[nH]cn1)NC(=O)CNC(=O)[C@H](CC(C)C)NC(=O)[C@H](Cc1c[nH]c2ccccc12)NC(=O)[C@H](CCCCN)NC(=O)CNC(=O)[C@H](CC(C)C)NC(=O)[C@H](CO)NC(=O)[C@H](Cc1c[nH]cn1)NC(C)=O)C(=O)N[C@H](C(=O)N[C@@H](CC(=O)O)C(=O)NCC(=O)N[C@@H](CCC(=O)O)C(=O)N[C@@H](C)C(=O)N[C@H](C(=O)N[C@@H](CC(=O)O)C(=O)N[C@@H](CO)C(=O)NCC(N)=O)[C@@H](C)O)[C@@H](C)O [Ac-PLP-BPI-NH2, Ac-HSLGKWLGHPDKF)-AcGAcGAc-ITDGEATDSG-NH2]
Moribund or death (PLP/CFA-immunized mice; [7]): 2/6 | Moribund or death (PLP/CFA-immunized mice; [8]): 1/6 | Incidence of anaphylaxis [1, 6]: 43.8% | Incidence of anaphylaxis (animals/total) [1, 6]: 7/16

QEAFSHIRIPLPH-AcGAcGAc-ITDGEATDSG (QEAFSHIRIPLPH[Ahx]G[Ahx]G[Ahx]ITDGEATDSG; listed as Homo sapiens) [VP2-BPI]
disease incidence (EAE mouse model; after day 17, FIG. 8(B)): 100% | loss of body weight (in words) (EAE mouse model; around day 14, FIG. 8(C)): greatest in PBS-treated mice followed by VP2-BPI-treated mice

EbHSLGKWLGHPDKF-AcGAcGAc-ITDGEATDSG ([Eb]HSLGKWLGHPDKF[Ahx]G[Ahx]G[Ahx]ITDGEATDSG) [B-PLP-BPI]
binding to LS102.9 B-cell line (in words) (LS102.9 mouse B-cells): binds to LS102.9 B-cell line | binding to B-cells from the spleen of EAE-induced mice (in words) [3]: can also bind to the B-cells from the spleen of EAE-induced mice

CC[C@H](C)[C@H](NC(=O)CCCCCNC(=O)CNC(=O)CCCCCNC(=O)CNC(=O)CCCCCNC(=O)[C@H](Cc1ccccc1)NC(=O)[C@H](CCCCN)NC(=O)[C@H](CC(=O)O)NC(=O)[C@@H]1CCCN1C(=O)[C@H](Cc1c[nH]cn1)NC(=O)CNC(=O)[C@H](CC(C)C)NC(=O)[C@H](Cc1c[nH]c2ccccc12)NC(=O)[C@H](CCCCN)NC(=O)CNC(=O)[C@H](CC(C)C)NC(=O)[C@H](CO)NC(=O)[C@@H](N)Cc1c[nH]cn1)C(=O)N[C@H](C(=O)N[C@@H](CC(=O)O)C(=O)NCC(=O)N[C@@H](CCC(=O)O)C(=O)N[C@@H](C)C(=O)N[C@H](C(=O)N[C@@H](CC(=O)O)C(=O)N[C@@H](CO)C(=O)NCC(=O)O)[C@@H](C)O)[C@@H](C)O [PLP-BPI, HSLGKWLGHPDKF-AcGAcGAc-ITDGEATDSG]
Moribund or death (PLP/CFA-immunized mice; [7]): 3/6 | Moribund or death (PLP/CFA-immunized mice; [8]): 1/6 | Incidence of anaphylaxis [1, 4]: 35.7% | Incidence of anaphylaxis (animals/total) [1, 4]: 5/14 | Incidence of anaphylaxis [1, 5]: 38.5% | Incidence of anaphylaxis (animals/total) [1, 5]: 5/13 | number of animals that died, Day 10 [2]: 0 | number of animals that died, Day 11 [2]: 0 | number of animals that died, Day 14 [2]: 0 | toxicity (conclusion from mortality, in words) [2]: low toxicity
